Data published in the supplement of paper PMC9265050, “Inhibition of RNA Binding in SND1 Increases the Levels of miR-1-3p and Sensitizes Cancer Cells to Navitoclax” (Cancers, 2022).

Test system: SW480
Test: drug sensitivity score (DSS, integrated dose-response area); higher = more sensitive (stronger viability reduction); extreme values may be limits of the assay
In short: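 The drug sensitivity score is the integrated area under a fitted non-linear dose–response model. It was derived from SW480 cells with doxycycline-inducible control or SND1-targeting shRNA, induced with 0.1 µg/mL doxycycline for 7 days and plated at 1000 cells per well on 384-well plates of 525 commercially available small-molecule inhibitors at five concentrations. CellTiter-Glo measured viability after 72 h.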

[1] = shRNA: SND1 shRNA1 (SND1 silenced)
[2] = shRNA: SND1 shRNA2 (SND1 silenced)
[3] = shRNA: control shRNA (non-targeting)

SMILES | drug sensitivity score [1] | drug sensitivity score [2] | drug sensitivity score [3]
Cc1cnc(Nc2ccc(OCCN3CCCC3)cc2)nc1Nc1cccc(S(=O)(=O)NC(C)(C)C)c1 [Fedratinib] | 5.8 DSS | 6.5 DSS | 5.8 DSS
CON(C)C(=O)N1N=C(c2cc(F)ccc2F)S[C@@]1(CCCN)c1ccccc1 [Filanesib] | 16.8 DSS | 16 DSS | 16.7 DSS
O=C(Nc1nc2cccc(-c3ccc(CN4CCS(=O)(=O)CC4)cc3)n2n1)C1CC1 [Filgotinib] | 1.5 DSS | 0 DSS | 3.6 DSS
CC(C)(C)NC(=O)[C@H]1CC[C@H]2[C@@H]3CC[C@H]4NC(=O)C=C[C@]4(C)[C@H]3CC[C@]12C [Finasteride] | 0 DSS | 0 DSS | 0.4 DSS
CCCCCCCCc1ccc(CCC(N)(CO)CO)cc1 [Fingolimod] | 8.5 DSS | 8.9 DSS | 6.6 DSS
O=c1[nH]c(=O)n([C@H]2C[C@H](O)[C@@H](CO)O2)cc1F [Floxuridine] | 12.8 DSS | 3 DSS | 4.3 DSS
Nc1nc(F)nc2c1ncn2[C@@H]1O[C@H](CO)[C@@H](O)[C@@H]1O [Fludarabine] | 1.8 DSS | 3.3 DSS | 4.7 DSS
O=c1[nH]cc(F)c(=O)[nH]1 [Fluorouracil] | 0.5 DSS | 0 DSS | 1.1 DSS
CC(C)C(=O)Nc1ccc([N+](=O)[O-])c(C(F)(F)F)c1 [Flutamide] | 0 DSS | 0 DSS | 0 DSS
COc1cc2c(Oc3ccc(NC(=O)C4(C(=O)Nc5ccc(F)cc5)CC4)cc3F)ccnc2cc1OCCCN1CCOCC1 [Foretinib] | 4.1 DSS | 4.2 DSS | 5 DSS
COc1cc(Nc2ncc(F)c(Nc3ccc4c(n3)N(COP(=O)(O)O)C(=O)C(C)(C)O4)n2)cc(OC)c1OC [Fostamatinib] | 3.4 DSS | – | 2.6 DSS
C[C@]12CC[C@@H]3c4ccc(O)cc4C[C@@H](CCCCCCCCC[S+]([O-])CCCC(F)(F)C(F)(F)F)[C@H]3[C@@H]1CC[C@@H]2O (stereo not given in full) [Fulvestrant] | 0 DSS | 0 DSS | 1.3 DSS
O=C(NOCCO)c1ccc2cncn2c1Nc1ccc(I)cc1F [GDC-0623] | 13.9 DSS | 7.6 DSS | 7.4 DSS
Cn1nccc1Nc1nccc(-c2ccn([C@H](CO)c3ccc(Cl)c(F)c3)c(=O)c2)n1 [GDC-0994] | 5.9 DSS | 0.2 DSS | 5.2 DSS
CNc1nc(Nc2cn(C(C)(C)C#N)nc2C)ncc1C(F)(F)F [GNE-0877] | 1.6 DSS | 0 DSS | 5.8 DSS
CCNc1nc(Nc2cc(F)c(C(=O)N3CCOCC3)cc2OC)ncc1C(F)(F)F [GNE-7915] | 0 DSS | 0 DSS | 1.4 DSS
CCCc1cc(C)[nH]c(=O)c1CNC(=O)c1cc(-c2ccnc(N3CCN(C)CC3)c2)cc2c1cnn2C(C)C [GSK343] | 0 DSS | 0 DSS | 4.5 DSS
CCCOc1ccn2c(C(C)=O)cc(-c3ccccc3S(C)(=O)=O)c2c1 [GSK2801] | 0 DSS | 0 DSS | 0 DSS
CCOC(=O)CCNc1cc(N2CCc3ccccc3CC2)nc(-c2ccccn2)n1 [GSK-J4] | 14 DSS | 14.7 DSS | 12.3 DSS
C[C@@H]1C=C2C(=O)O[C@@H]3CC[C@H](C1)[C@]23O [Galiellalactone] | 3.8 DSS | 4.2 DSS | 3.4 DSS
Cc1cccc(-c2nn3c(c2-c2ccnc4ccc(C(N)=O)cc24)CCC3)n1 [Galunisertib] | 0 DSS | 0 DSS | 0 DSS
Cc1cc(Nc2cc(CN3CCOCC3)c3nc(C)c(Cc4ccc(Cl)cc4F)n3n2)n[nH]1 [Gandotinib] | 6.9 DSS | 4.1 DSS | 7 DSS
CC(C)c1cc(-c2n[nH]c(=O)n2-c2ccc3c(ccn3C)c2)c(O)cc1O [Ganetespib] | 12.7 DSS | 12.5 DSS | 13.9 DSS
CN(C)C1CCN(C(=O)c2ccc(NC(=O)Nc3ccc(-c4nc(N5CCOCC5)nc(N5CCOCC5)n4)cc3)cc2)CC1 [Gedatolisib] | 4.2 DSS | 9.6 DSS | 10.3 DSS
COc1cc2ncnc(Nc3ccc(F)c(Cl)c3)c2cc1OCCCN1CCOCC1 [Gefitinib] | 3.6 DSS | 6.6 DSS | 3.7 DSS

SMILES | drug sensitivity score [1] | drug sensitivity score [2] | drug sensitivity score [3]
Nc1ccn([C@@H]2O[C@H](CO)[C@@H](O)C2(F)F)c(=O)n1 [Gemcitabine] | 15.8 DSS | 6.1 DSS | 13.4 DSS
CCN(CC)Cc1ccc2cc(COC(=O)Nc3ccc(C(=O)NO)cc3)ccc2c1 [Givinostat] | 6.6 DSS | 7.3 DSS | 6.7 DSS
CN1CC[C@@H](NC(=O)Nc2ccc(C#N)cc2)C[C@@H]1c1nc2ccccc2[nH]1 [Glasdegib] | 0 DSS | 0 DSS | 5.6 DSS
CN1CCN(C2CCN(C(=O)Nc3cc(Oc4ccc(NC(=O)C5(C(=O)Nc6ccc(F)cc6)CC5)c(F)c4)ccn3)CC2)CC1 [Golvatinib] | 0 DSS | 2.2 DSS | 0 DSS
CC(C)C[C@H](NC(=O)[C@@H](COC(C)(C)C)NC(=O)[C@H](Cc1ccc(O)cc1)NC(=O)[C@H](CO)NC(=O)[C@H](Cc1c[nH]c2ccccc12)NC(=O)[C@H](Cc1cnc[nH]1)NC(=O)[C@@H]1CCC(=O)N1)C(=O)N[C@@H](CCCNC(=N)N)C(=O)N1CCC[C@H]1C(=O)NNC(N)=O [Goserelin] | 0 DSS | 0 DSS | 0 DSS
O=S(=O)(c1cccc2c(O)nccc12)N1CCCNCC1 [Hydroxyfasudil] | 1.6 DSS | – | 3.5 DSS
NC(=O)NO [Hydroxyurea] | 0 DSS | 0 DSS | 0.2 DSS
COc1cc2c(cc1-c1c(C)noc1C)ncc1[nH]c(=O)n([C@H](C)c3ccccn3)c12 [I-BET151] | 1.4 DSS | 0.5 DSS | 2.4 DSS
O=C(O)c1ccc(O)c2ncccc12 [IOX-1] | 1.7 DSS | 1.1 DSS | 0.7 DSS
O=C(O)CNC(=O)c1c(O)c2ccccc2n(Cc2ccccc2)c1=O [IOX-2] | 5 DSS | 2.3 DSS | 6.2 DSS
C=CC(=O)N1CCC[C@@H](n2nc(-c3ccc(Oc4ccccc4)cc3)c3c(N)ncnc32)C1 [Ibrutinib] | 0 DSS | 0.6 DSS | 0 DSS
C#Cc1cccc(Nc2ncnc3cc4c(cc23)OCCOCCOCCO4)c1 [Icotinib] | 1.1 DSS | 3.8 DSS | 1.1 DSS
CC(=O)[C@]1(O)Cc2c(O)c3c(c(O)c2[C@@H](O[C@H]2C[C@H](N)[C@H](O)[C@H](C)O2)C1)C(=O)c1ccccc1C3=O [Idarubicin] | 11.6 DSS | 9 DSS | 9.4 DSS
COc1cc(C(=O)O)ccc1NC(=O)[C@@H]1N[C@@H](CC(C)(C)C)[C@](C#N)(c2ccc(Cl)cc2F)[C@H]1c1cccc(Cl)c1F [Idasanutlin] | 0 DSS | 0.3 DSS | 0.9 DSS
CC[C@H](Nc1ncnc2[nH]cnc12)c1nc2cccc(F)c2c(=O)n1-c1ccccc1 [Idelalisib] | 2.3 DSS | 4.6 DSS | 0.7 DSS
O=P1(NCCCl)OCCCN1CCCl (stereo not given) [Ifosfamide] | 0 DSS | 0 DSS | 0 DSS
Cc1ccc(NC(=O)c2ccc(CN3CCN(C)CC3)cc2)cc1Nc1nccc(-c2cccnc2)n1 [Imatinib] | 0.7 DSS | 1.4 DSS | 2.5 DSS
CC(C)Cn1cnc2c(N)nc3ccccc3c21 [Imiquimod] | 0.9 DSS | 0.1 DSS | 3.5 DSS
O=C(Nc1ccncc1)C(=O)c1cn(Cc2ccc(Cl)cc2)c2ccccc12 [Indibulin] | 8.8 DSS | 7.7 DSS | 8.8 DSS
NC(=O)c1ccc(I)c([N+](=O)[O-])c1 [Iniparib] | 0.4 DSS | 0.1 DSS | 0 DSS
CC(C)NC[C@@H](C(=O)N1CCN(c2ncnc3c2[C@H](C)C[C@H]3O)CC1)c1ccc(Cl)cc1 [Ipatasertib] | 3.5 DSS | 9.7 DSS | 5.9 DSS
CCc1c2c(nc3ccc(OC(=O)N4CCC(N5CCCCC5)CC4)cc13)-c1cc3c(c(=O)n1C2)COC(=O)[C@]3(O)CC [Irinotecan] | 3.2 DSS | 1.6 DSS | 5.5 DSS
CCC(C)n1ncn(-c2ccc(N3CCN(c4ccc(OCC5COC(Cn6cncn6)(c6ccc(Cl)cc6Cl)O5)cc4)CC3)cc2)c1=O (stereo not given) [Itraconazole] | 4.2 DSS | 0.2 DSS | 1.5 DSS
C/C(=C\c1csc(C)n1)[C@@H]1C[C@@H]2O[C@]2(C)CCC[C@H](C)[C@H](O)[C@@H](C)C(=O)C(C)(C)[C@@H](O)CC(=O)N1 [Ixabepilone] | 3 DSS | 2.7 DSS | 2.5 DSS
